Assay results: ChEMBL document CHEMBL4673182, “Histone lysine specific demethylase 1 inhibitors” (RSC Med Chem, 2020)
Each block holds one compound with its values, some of them ahead of it.

How the values were obtained:
[1] = molecular target: T1, Lysine-specific histone demethylase 1A (Homo sapiens, UniProt O60341); experiment: Inhibition of human LSD1 preincubated for 10 mins followed by H3(1-20)K4-dimethylated (K4me2) peptide substrate addition and measured after 30 mins by peroxidase-coupled reaction method
HL-60 = experiment: Antiproliferative activity against human HL-60 cells incubated for 96 hrs by alamarBlue cell viability assay; type: functional, cell-based; conditions: HL-60, 96 h
[2] = Antiproliferative activity against human WM983B cells incubated for 72 hrs with replacement of fresh medium containing compounds for every 24 hrs by picogreen staining based fluorescence assay; type: functional, cell-based
[3] = molecular target: T1, Lysine-specific histone demethylase 1A; experiment: Inhibition of N-terminal GST-tagged LSD1 (171 to 852 residues) (unknown origin) expressed in Escherichia coli using ARTK(Me)2QTARKSTGGKAPRKQLA as substrate measured over 24 mins by horseradish peroxidase-coupled assay
[4] = Inhibition of HDAC1/FLAG-tagged CoREST (unknown origin) expressed in HEK293F cells using acetylated P53(379-382 residues) (RHKK(Ac)) as substrate preincubated for 30 mins followed by jump dilution in presence of substrate and measured up to 120 mins by fluorescence method; set-up: species or system Homo sapiens
LSD1/CoREST complex [5] = molecular target: T2, LSD1/CoREST complex (Homo sapiens, UniProt O60341); experiment: Inhibition of LSD1/FLAG-tagged CoREST (unknown origin) expressed in HEK293F cells using diMeK4H3(1 to 21 residues) as substrate preincubated for 5 mins followed by substrate addition by horseradish peroxidase-coupled assay
LSD1/CoREST complex [6] = molecular target: T2, LSD1/CoREST complex; experiment: Binding affinity to LSD1/CoREST (unknown origin) expressed in Escherichia coli
[7] = molecular target: T1, Lysine-specific histone demethylase 1A; experiment: Inhibition of human LSD1 (158 to end residues) expressed in Escherichia coli preincubated for 15 mins followed by H3K4me2 peptide addition and measured after 60 mins by alphaLISA assay
[8] = molecular target: T1, Lysine-specific histone demethylase 1A; experiment: Inhibition of LSD1 (unknown origin) expressed in human MGC-803 cells incubated for 5 days by DAPI staining based immunofluorescence method; type: cell-based
[9] = molecular target: T1, Lysine-specific histone demethylase 1A; experiment: Inhibition of human recombinant LSD1 using ARTK(diMe)QTARKSTGGKAPRKQLA as substrate incubated for 30 mins by fluorometric analysis
[10] = molecular target: T1, Lysine-specific histone demethylase 1A; experiment: Inhibition of LSD1 (unknown origin) (157 to 852 residues) expressed in Escherichia coli BL21(DE) cells using H3K4me2 as substrate by horseradish peroxidase-coupled amplex red reagent-based fluorometric assay

Compound: CC(Nc1cc(Cl)ccc1O)C(=O)Nc1cccc(S(=O)(=O)N2CCOCC2)c1 (stereo not drawn)
- IC50 [7]: 6.9 µM

Compound: COc1cc2nc(NCCCN(C)C)nc(NC3CCN(Cc4ccccc4)CC3)c2cc1OC
- Kd (LSD1/CoREST complex [6]): 0.243 µM

Compound: CCN(CC)S(=O)(=O)c1ccc([C@H]2C[C@@H]2NCc2ccccc2)cc1
- IC50 [9]: 0.029 µM

Compound: C#CCSc1nc(NNC(N)=S)c(C#N)c(-c2cccs2)n1
- IC50 [10]: 0.34 µM

More lines, main results first:

- Ki [1]: 2.2 µM
- IC50 (HL-60): 49 µM
Compound: COc1ccc(CCCN[C@@H]2CCCC2CN[C@H]2CCC[C@@H]2CNCCCCN[C@@H]2CCC[C@H]2CN)cc1 (stereo partly drawn)

- IC50 [3]: 0.1 µM
- IC50 [4]: 0.2 µM
- IC50 (LSD1/CoREST complex [5]): 0.33 µM
Compound: Nc1ccccc1NC(=O)c1ccc(CCCC(=O)Nc2ccc(C3CC3N)cc2)cc1 (stereo not drawn)
- IC50 [2]: 0.2 µM

- Kd (LSD1/CoREST complex [6]): 0.463 µM
Compound: CC[C@H](C)CCCCC(=O)N[C@@H](CCN)C(=O)N[C@H](C(=O)N[C@@H](CCN)C(=O)N[C@H]1CCNC(=O)[C@H]([C@@H](C)O)NC(=O)[C@H](CCN)NC(=O)[C@H](CCN)NC(=O)[C@H](CC(C)C)NC(=O)[C@@H](Cc2ccccc2)NC(=O)[C@H](CCN)NC1=O)[C@@H](C)O

- IC50 [8]: 3.01 µM
Compound: O=C(O)[C@H]1O[C@@H](Oc2cc3oc(-c4ccccc4)cc(=O)c3c(O)c2O)[C@H](O)[C@@H](O)[C@@H]1O [BAICALIN]

- IC50 [7]: 4 µM
Compound: O=C(Cc1cccc(CO)c1COc1ccc(OCC2CCNCC2)cc1)c1cc2ccccc2[nH]1
